This is an account of results in article PMC5976936 (2018).

The test system of assay [1] is G4_1-4 (DNA, G4) CCGGGGCGGGCCGGGGGCGGGGTC
Description: ECD thermal melting. The note with it: KCl concentration not stated for this experiment; 50 mM Tris-HCl pH 7.4; 10 µM TMPyP4, 5 µM DNA.

Assay [2] deals with G4mod1 (DNA, G4, 5-hydroxymethylcytosine at 7) CCGGGGCGGGCCGGGGGCGGGGTC
Description: ECD thermal melting. The note with it: KCl concentration not stated for this experiment; 50 mM Tris-HCl pH 7.4; 10 µM TMPyP4, 5 µM DNA.

SMILES strings stand for the structures.

Take `C[n+]1ccc(-c2c3nc(c(-c4cc[n+](C)cc4)c4ccc([nH]4)c(-c4cc[n+](C)cc4)c4nc(c(-c5cc[n+](C)cc5)c5ccc2[nH]5)C=C4)C=C3)cc1`: the ΔTM in assay [1] and in assay [2] was 12 °C each time.
